Experimental data from the NIST ThermoML archive (doi:10.1021/acs.jced.8b01135).
± gives the expanded uncertainty stated by the source.

Experiment: xn = mol fraction of the nth substance listed
Conditions: 102 kPa, Liquid; for mass density: Vibrating tube method; for viscosity: Concentric cylinders viscometry; for speed of sound: Frequency=3 MHz, Single path-length method

**Q.** What does the source list for `CCCCCCC1CCCCC1` [hexylcyclohexane] + CCCCCCCCCCCC?
**A.** mass density (303.15 K, x1 = 0.5996): 775.7 ± 0.73 kg/m3; mass density (303.15 K, x1 = 0.7005): 781.79 ± 0.73 kg/m3; mass density (303.15 K, x1 = 0.7996): 787.89 ± 0.74 kg/m3; mass density (303.15 K, x1 = 0.8997): 794.16 ± 0.74 kg/m3; mass density (303.15 K, x1 = 1): 800.61 ± 0.75 kg/m3; viscosity (313.15 K, x1 = 0.1002): 1.11 ± 0.02 mPa·s; viscosity (313.15 K, x1 = 0.201): 1.14 ± 0.02 mPa·s; viscosity (313.15 K, x1 = 0.3): 1.17 ± 0.02 mPa·s; viscosity (313.15 K, x1 = 0.3998): 1.21 ± 0.02 mPa·s; viscosity (313.15 K, x1 = 0.5002): 1.25 ± 0.02 mPa·s; viscosity (313.15 K, x1 = 0.5999): 1.3 ± 0.02 mPa·s; viscosity (313.15 K, x1 = 0.6998): 1.34 ± 0.02 mPa·s; viscosity (313.15 K, x1 = 0.8001): 1.4 ± 0.02 mPa·s; viscosity (313.15 K, x1 = 0.8998): 1.46 ± 0.02 mPa·s; viscosity (313.15 K, x1 = 1): 1.52 ± 0.03 mPa·s; speed of sound (313.15 K, x1 = 0.1009): 1226.8 ± 0.9 m/s; speed of sound (313.15 K, x1 = 0.1998): 1232.4 ± 0.9 m/s; speed of sound (313.15 K, x1 = 0.3001): 1238.3 ± 1 m/s; speed of sound (313.15 K, x1 = 0.4001): 1244.3 ± 1 m/s; speed of sound (313.15 K, x1 = 0.5004): 1250.5 ± 1.1 m/s; speed of sound (313.15 K, x1 = 0.5996): 1256.8 ± 1.1 m/s; speed of sound (313.15 K, x1 = 0.7005): 1263.4 ± 1.2 m/s; speed of sound (313.15 K, x1 = 0.7996): 1270.1 ± 1.3 m/s; speed of sound (313.15 K, x1 = 0.8997): 1276.9 ± 1.3 m/s; speed of sound (313.15 K, x1 = 1): 1284.2 ± 1.4 m/s; mass density (313.15 K, x1 = 0.1009): 739.73 ± 0.71 kg/m3; mass density (313.15 K, x1 = 0.1998): 745.25 ± 0.72 kg/m3; mass density (313.15 K, x1 = 0.3001): 750.94 ± 0.72 kg/m3; mass density (313.15 K, x1 = 0.4001): 756.7 ± 0.72 kg/m3; mass density (313.15 K, x1 = 0.5004): 762.59 ± 0.72 kg/m3; mass density (313.15 K, x1 = 0.5996): 768.5 ± 0.73 kg/m3; mass density (313.15 K, x1 = 0.7005): 774.6 ± 0.73 kg/m3; mass density (313.15 K, x1 = 0.7996): 780.72 ± 0.74 kg/m3; mass density (313.15 K, x1 = 0.8997): 786.99 ± 0.74 kg/m3; mass density (313.15 K, x1 = 1): 793.43 ± 0.75 kg/m3; viscosity (323.15 K, x1 = 0.1002): 0.958 ± 0.021 mPa·s; viscosity (323.15 K, x1 = 0.201): 0.986 ± 0.021 mPa·s; viscosity (323.15 K, x1 = 0.3): 1.01 ± 0.02 mPa·s; viscosity (323.15 K, x1 = 0.3998): 1.05 ± 0.02 mPa·s; viscosity (323.15 K, x1 = 0.5002): 1.08 ± 0.02 mPa·s; viscosity (323.15 K, x1 = 0.5999): 1.12 ± 0.02 mPa·s; viscosity (323.15 K, x1 = 0.6998): 1.15 ± 0.02 mPa·s; viscosity (323.15 K, x1 = 0.8001): 1.2 ± 0.02 mPa·s; viscosity (323.15 K, x1 = 0.8998): 1.25 ± 0.02 mPa·s; viscosity (323.15 K, x1 = 1): 1.3 ± 0.03 mPa·s; speed of sound (323.15 K, x1 = 0.1009): 1189.7 ± 0.9 m/s; speed of sound (323.15 K, x1 = 0.1998): 1195.4 ± 0.9 m/s; speed of sound (323.15 K, x1 = 0.3001): 1201.3 ± 1 m/s; speed of sound (323.15 K, x1 = 0.4001): 1207.4 ± 1 m/s; speed of sound (323.15 K, x1 = 0.5004): 1213.6 ± 1.1 m/s; speed of sound (323.15 K, x1 = 0.5996): 1219.8 ± 1.1 m/s; speed of sound (323.15 K, x1 = 0.7005): 1226.4 ± 1.2 m/s; speed of sound (323.15 K, x1 = 0.7996): 1233.1 ± 1.3 m/s; speed of sound (323.15 K, x1 = 0.8997): 1239.8 ± 1.3 m/s; speed of sound (323.15 K, x1 = 1): 1247.1 ± 1.4 m/s; mass density (323.15 K, x1 = 0.1009): 732.44 ± 0.72 kg/m3; mass density (323.15 K, x1 = 0.1998): 737.97 ± 0.72 kg/m3; mass density (323.15 K, x1 = 0.3001): 743.68 ± 0.72 kg/m3; mass density (323.15 K, x1 = 0.4001): 749.46 ± 0.72 kg/m3; mass density (323.15 K, x1 = 0.5004): 755.35 ± 0.72 kg/m3; mass density (323.15 K, x1 = 0.5996): 761.28 ± 0.73 kg/m3; mass density (323.15 K, x1 = 0.7005): 767.39 ± 0.73 kg/m3; mass density (323.15 K, x1 = 0.7996): 773.52 ± 0.74 kg/m3; mass density (323.15 K, x1 = 0.8997): 779.8 ± 0.74 kg/m3; mass density (323.15 K, x1 = 1): 786.25 ± 0.75 kg/m3; viscosity (333.15 K, x1 = 0.1002): 0.833 ± 0.021 mPa·s; viscosity (333.15 K, x1 = 0.201): 0.855 ± 0.021 mPa·s; viscosity (333.15 K, x1 = 0.3): 0.88 ± 0.021 mPa·s; viscosity (333.15 K, x1 = 0.3998): 0.906 ± 0.021 mPa·s; viscosity (333.15 K, x1 = 0.5002): 0.935 ± 0.021 mPa·s; viscosity (333.15 K, x1 = 0.5999): 0.966 ± 0.021 mPa·s; viscosity (333.15 K, x1 = 0.6998): 1 ± 0.02 mPa·s; viscosity (333.15 K, x1 = 0.8001): 1.04 ± 0.02 mPa·s; viscosity (333.15 K, x1 = 0.8998): 1.07 ± 0.02 mPa·s; viscosity (333.15 K, x1 = 1): 1.12 ± 0.03 mPa·s; speed of sound (333.15 K, x1 = 0.1009): 1153.6 ± 0.9 m/s; speed of sound (333.15 K, x1 = 0.1998): 1159.3 ± 0.9 m/s; speed of sound (333.15 K, x1 = 0.3001): 1165.3 ± 1 m/s; speed of sound (333.15 K, x1 = 0.4001): 1171.3 ± 1 m/s; speed of sound (333.15 K, x1 = 0.5004): 1177.6 ± 1.1 m/s; speed of sound (333.15 K, x1 = 0.5996): 1183.9 ± 1.1 m/s; speed of sound (333.15 K, x1 = 0.7005): 1190.5 ± 1.2 m/s; speed of sound (333.15 K, x1 = 0.7996): 1197.1 ± 1.3 m/s; speed of sound (333.15 K, x1 = 0.8997): 1203.6 ± 1.3 m/s; speed of sound (333.15 K, x1 = 1): 1211 ± 1.4 m/s; mass density (333.15 K, x1 = 0.1009): 725.11 ± 0.72 kg/m3; mass density (333.15 K, x1 = 0.1998): 730.66 ± 0.72 kg/m3; mass density (333.15 K, x1 = 0.3001): 736.38 ± 0.72 kg/m3; mass density (333.15 K, x1 = 0.4001): 742.18 ± 0.72 kg/m3; mass density (333.15 K, x1 = 0.5004): 748.09 ± 0.72 kg/m3; mass density (333.15 K, x1 = 0.5996): 754.02 ± 0.73 kg/m3; mass density (333.15 K, x1 = 0.7005): 760.16 ± 0.73 kg/m3; mass density (333.15 K, x1 = 0.7996): 766.29 ± 0.74 kg/m3; mass density (333.15 K, x1 = 0.8997): 772.58 ± 0.74 kg/m3; mass density (333.15 K, x1 = 1): 779.05 ± 0.75 kg/m3
